Assay results from patent EP0293220B1, “Pharmacologically active 2-and 3-substituted (1', 5'-diaryl-3-pyrazolyl)-N-Hydroxypropanamides and method for synthesizing” (ORTHO PHARMACEUTICAL CORPORATION, priority 1987, dated 1988).
Values belong to the compound of their own block, whether it stands above or below them.

Legend:
lipoxygenase = target: T1, lipoxygenase (Rattus norvegicus, UniProt P12527); assay: Ex vivo arachidonic acid metabolism of rat pleural exudate cells after oral dosing, lipoxygenase products (5-HETE, leukotriene B₄); assay type: in vivo, Sprague-Dawley rats; conditions: for inhibition at 30 mg/kg: 30 mpk; for ED50: oral dose, ex vivo rat pleural exudate cells, read-out: IC₅₀, p.o. Lipoxygenase
T1 construct: endogenous in cells; host or cells: pleural exudate cells of carrageenan-treated Sprague-Dawley rats
T1 sequence (P12527 1-673): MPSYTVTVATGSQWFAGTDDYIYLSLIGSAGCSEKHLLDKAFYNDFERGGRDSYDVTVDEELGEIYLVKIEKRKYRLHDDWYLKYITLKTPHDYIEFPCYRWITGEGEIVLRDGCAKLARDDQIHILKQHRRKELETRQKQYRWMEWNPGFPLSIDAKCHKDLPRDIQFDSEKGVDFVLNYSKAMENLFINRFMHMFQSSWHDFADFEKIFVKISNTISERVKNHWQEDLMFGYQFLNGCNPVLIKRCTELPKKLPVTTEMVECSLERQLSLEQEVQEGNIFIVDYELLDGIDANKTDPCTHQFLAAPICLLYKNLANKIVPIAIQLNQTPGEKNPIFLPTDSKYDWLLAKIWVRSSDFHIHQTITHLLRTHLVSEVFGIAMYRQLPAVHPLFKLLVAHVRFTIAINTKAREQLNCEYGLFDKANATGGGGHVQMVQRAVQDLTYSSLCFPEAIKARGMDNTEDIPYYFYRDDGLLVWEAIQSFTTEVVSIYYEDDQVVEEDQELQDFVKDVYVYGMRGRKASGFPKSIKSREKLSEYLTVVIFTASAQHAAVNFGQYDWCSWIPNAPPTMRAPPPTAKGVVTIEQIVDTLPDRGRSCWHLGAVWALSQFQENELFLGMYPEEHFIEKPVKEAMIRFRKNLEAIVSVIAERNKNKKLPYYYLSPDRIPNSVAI
Description: This assay determines the ability of orally administered compounds to inhibit arachidonic acid metabolism with rat pleural exudate cells, via the lipoxygenase and/or cyclooxygenase enzymes. Sprague-Dawley rats (250 - 275 gm) are fasted overnight. The next morning, an acute inflammatory response is induced by the intra-thoracic injection of 1 ml of 0.25% carrageenan. Three hours later the rats are dosed orally with the test compounds at a screening dose of 16.5-30 mpk. Thirty minutes to one hour later the rats are sacrificed and pleural fluid harvested. The exudate fluids are diluted 1:5 using Hanks BSS and stimulated using 10 µg/ml calcium ionophore A-23187. The reaction is stopped after 15 minutes by the addition of 25 µl of 1N HCl, and the samples are centrifuged at 1000 g to sediment the cells. The supernate is extracted and applied to a C-18 HPLC column. The arachidonic acid metabolites 12-HHT (cyclooxygenase), 5-HETE, and leukotriene B₄ (lipoxygenase) are eluted using an acetonitrile methanol gradient and detected by UV absorption at 235 and 270 nm. The percent inhibition of the arachidonic acid metabolites is indicative of the anti-inflammatory activity of the tested compound and the results of this method for several compounds of the invention are listed in Table 13. The values shown are the percent inhibition at the dose indicated except for the those cases in which the IC₅₀ value is given.

Polyarthritis = Polyarthritis induced by Mycobacterium butyricum in rats: inhibition of paw volume increase after oral dosing; assay type: in vivo, Lewis strain laboratory rats; conditions: percent inhibition of paw volume increase
Description: Polyarthritis was induced in Lewis strain laboratory rats (weight = about 200 grams) by injection of a suspension of Mycobacterium butyricum in mineral oil into the subplantar tissue of the mammal's hind paws. On day 10 after the injection, the rats were assigned to groups, and paw volumes and body weights were recorded. Paw volumes of the contralateral, uninjected hind paw were determined by mercury plethylsmography. Per oral (p.o.) dosing began and continued for five consecutive days thereafter. On day 14 after the initial injection, approximately four hours after the final dose was administered, paw volumes and body weights were recorded and quantitated.
Anti-inflammatory activity of the N-hydroxypropanamide pyrazole compounds is expressed as the percent inhibition of paw volume increase.

[1] = rat, po, exudate cells stimulated with 10 µg/ml calcium ionophore A-23187, read-out: %INH., p.o. Lipoxygenase (mpk)

Compound: COc1ccc(-c2cc(C(O)c3ccccc3)nn2-c2ccc(OC)cc2)cc1 (stereo not drawn) [Compound 105, [1,5-Bis(4-methoxyphenyl)-3-pyrazolyl]-1-phenylmethanol]
%INH., p.o. (mpk) (Polyarthritis; 15 mpk): 49% @ 15

Compound: COc1ccc(-n2nc(C(O)c3ccc4ccccc4c3)cc2-c2ccc(C)cc2)cc1 (stereo not drawn) [Compound 94]
%INH., p.o. (mpk) (Polyarthritis; 10 mpk): 29% @ 10

Compound: COc1ccc(-n2nc(C(O)c3ccc(C)cc3)cc2-c2ccc(C)cc2)cc1 (stereo not drawn) [Compound 92]
%INH., p.o. (mpk) (Polyarthritis; 10 mpk): 27% @ 10

Compound: COc1ccc(-n2nc(/C(=C/C(=O)O)c3ccccc3)cc2-c2ccc(C)cc2)cc1 [Compound 155, (E)-3-[1-(4-Methoxyphenyl)-5-(4-methylphenyl)-3-pyrazolyl]-3-phenyl-2-propenoic acid]
%INH., p.o. (mpk) (Polyarthritis; 10 mpk): 62% @ 10

Compound: COc1ccc(-n2nc(/C(=C/C(=O)N(C)O)c3ccc(Cl)cc3)cc2-c2ccc(C)cc2)cc1 [Compound 164]
%INH., p.o. (mpk) (Polyarthritis; 10 mpk): 22% @ 10

Compound: COc1ccc(-n2nc(C(=O)c3ccc(Cl)cc3)cc2-c2ccc(C)cc2)cc1 [Compound 108]
%INH., p.o. (mpk) (Polyarthritis; 10 mpk): 25% @ 10

Compound: COc1ccc(-n2nc(/C(=C/C(=O)O)c3ccc(Cl)cc3)cc2-c2ccc(C)cc2)cc1 [Compound 157, (E)-3-(4-Chlorophenyl)-3-[1-(4-methoxyphenyl)-5-(4-methylphenyl)-3-pyrazolyl]propenoic acid]
%INH., p.o. (mpk) (Polyarthritis; 10 mpk): 24% @ 10

Further lines, results first:

inhibition at 30 mg/kg (lipoxygenase; [1]): 3%
Compound: COc1ccc(-n2nc(/C(=C/C(=O)N(C)O)c3ccc(-c4ccccc4)cc3)cc2-c2ccc(C)cc2)cc1 [Compound 168]

inhibition at 30 mg/kg (lipoxygenase; [1]): 42%
Compound: CCOC(=O)CC(c1cc(-c2ccc(C)cc2)n(-c2ccc(OC)cc2)n1)c1cccc2ccccc12 (stereo not drawn) [Compound 150]

inhibition at 30 mg/kg (lipoxygenase; [1]): 12%
Compound: COc1ccc(-n2nc(/C(=C\C(=O)N(C)O)c3ccc(Cl)cc3)cc2-c2ccc(C)cc2)cc1 [Compound 165]

ED50 (lipoxygenase): 9 mg/kg
Compound: CCOC(=O)/C=C(/c1ccc(C)cc1)c1cc(-c2ccc(C)cc2)n(-c2ccc(OC)cc2)n1 [Compound 125, (Z)-Ethyl 3-[1(4-methoxyphenyl)-5-(4-methylphenyl)-3-pyrazolyl]-3-(4-methylphenyl)propenoate]

inhibition at 16.5 mg/kg (lipoxygenase; rat, po, 16.5 mpk, exudate cells stimulated with 10 µg/ml calcium ionophore A-23187, read-out: %INH., p.o. Lipoxygenase (mpk)): 34%
Compound: CCOC(=O)/C=C(/c1ccc(-c2ccccc2)cc1)c1cc(-c2ccc(C)cc2)n(-c2ccc(OC)cc2)n1 [Compound 132]

ED50 (lipoxygenase): 10 mg/kg
Compound: COc1ccc(-n2nc(/C(=C/C(=O)N(C)O)c3ccc(F)cc3)cc2-c2ccc(C)cc2)cc1 [Compound 163, (E)-3-(4-Fluorophenyl)-N-hydroxy-3-[1-(4-methoxyphenyl)-5-(4-methylphenyl)-3-pyrazolyl]-N-methylpropenamide]

inhibition at 30 mg/kg (lipoxygenase; [1]): 62%
Compound: COc1ccc(-n2nc(C(=O)c3ccc(C)cc3)cc2-c2ccc(C)cc2)cc1 [Compound 109, 1-(4-Methoxyphenyl)-3-(4-methylbenzoyl)-5-(4-methylphenyl)pyrazole]

inhibition at 17.5 mg/kg (lipoxygenase; rat, po, 17.5 mpk, exudate cells stimulated with 10 µg/ml calcium ionophore A-23187, read-out: %INH., p.o. Lipoxygenase (mpk)): 53%
Compound: COc1ccc(-n2nc(/C(=C\C(=O)O)c3ccc(Cl)cc3)cc2-c2ccc(C)cc2)cc1 [Compound 158, (Z)-3-(4-Chlorophenyl)-3-[1-(4-methoxyphenyl)-5-(4-methylphenyl)-3-pyrazolyl]propenoic acid]
